Source: patent US12331343B2, “FAMIN assay methods” (Cambridge Enterprise Limited, priority 2018, dated 2025)
One block for each molecule: values may come before it.

How the values were obtained:
recombinant human FAMIN [1] = target: T1, recombinant human FAMIN (Homo sapiens, UniProt Q8IV20); assay: adenosine phosphorylase activity of FAMIN (adenosine to adenine and ribose-1-phosphate, LC-MS); assay type: biochemical; conditions: 10 μg recombinant FAMIN, 10 μM adenosine in PBS, 1 h at 37° C. (FIG. 5B, 5C)
T1 construct: twin Strep-tag (followed by short linker and TEV cleavage site) (N, cleaved yes); made in house; host or cells: HEK293T
T1 sequence (Q8IV20 1-430): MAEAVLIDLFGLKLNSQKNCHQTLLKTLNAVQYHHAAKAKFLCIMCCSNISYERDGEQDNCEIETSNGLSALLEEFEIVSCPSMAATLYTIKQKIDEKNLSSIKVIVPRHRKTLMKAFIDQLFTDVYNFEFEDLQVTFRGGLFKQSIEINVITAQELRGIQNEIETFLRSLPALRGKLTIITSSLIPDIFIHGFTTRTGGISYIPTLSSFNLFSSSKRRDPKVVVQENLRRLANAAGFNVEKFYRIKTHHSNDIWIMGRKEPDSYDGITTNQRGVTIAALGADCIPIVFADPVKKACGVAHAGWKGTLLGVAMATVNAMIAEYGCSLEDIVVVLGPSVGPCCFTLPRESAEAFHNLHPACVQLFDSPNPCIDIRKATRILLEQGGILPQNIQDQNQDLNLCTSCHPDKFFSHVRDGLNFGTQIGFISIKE
Procedure: (§1) FIGS. 5B and 5C show levels of adenine and ribose-1-phosphate ([…]) in the reaction described in FIG. 5A. […] For enzyme kinetic assays a further chromatographic approach was used to allow for analysis of all substrates and products using a single assay. A Waters BEH C8 column was used (100×2.1 mm, 1.7 μm) with a weak mobile phase (A) of aqueous 10 mM ammonium acetate with 0.1% ammonia and a strong mobile phase (B) of acetonitrile. For gradient elution mobile phase B was held at 0% for 1.6 min, followed by a linear gradient to 30% B over 4.0 minutes, a further increase to 90% over 1 min, and a hold at 90% B for 1 min, with re-equilibration for 1.5 minutes giving a total run time of 6.5 minutes. The flow rate was 0.5 mL/min and the injection volume was 2 μL. The needle wash used was 4:1 water:acetonitrile. Putative enzymatic function of recombinant human strep-tagged FAMIN was investigated against aqueous HepG2 metabolite extracts (dried, Folch extracted from 5×10^6 cells) or nucleoside substrates at indicated concentrations and detected using HPLC-MS as described above. Unless otherwise indicated in the figure legends, HEK293T cell-expressed protein was used for all assays. The reaction mixture (final volume 100 μL) consisted of 10 μg of recombinant protein and 10 μM nucleoside substrate in Dulbecco's PBS (Thermo Fisher), pH 7.4 unless otherwise indicated. The samples were incubated at 37° C. for 1 h and then quenched with ×5 volume of ice-cold methanol. Samples were centrifuged at 21,000 g for 5 min transferred to fresh tubes and then dried down prior to analysis as described above.

recombinant human FAMIN [2] = target: T1, recombinant human FAMIN; assay: adenosine deaminase activity of FAMIN (adenosine to inosine, LC-MS); assay type: biochemical; conditions: 10 μg recombinant FAMIN, 10 μM adenosine in PBS, 1 h at 37° C. (FIG. 5A)
recombinant human FAMIN [3] = target: T1, recombinant human FAMIN; assay: specificity of FAMIN activity towards purine and pyrimidine nucleosides (substrate consumption, LC-MS); assay type: biochemical; conditions: pure substrate with 10 μg recombinant FAMIN in 100 μl PBS, pH 7.4, 1 h at 37° C. (FIG. 2A, 2N, 2R, 2S)
Description: Peak intensity of each extracted chromatogram per given m/z value normalised to maximum level of 100. Controls as indicated include reaction buffer (PBS), protein elution buffer as described in methods, recombinant FAMIN without substrate or protein buffer with adenosine substrate. […] FIGS. 2C, 2D, 2E, and 2F show representative chromatograms and mass spectra for (2C) adenine, (2D) hypoxanthine, (2E) inosine and (2F) ribose-1-phosphate. Upper panels: (2C-E) extracted positive ion chromatogram showing injection of (2C) 1 μM standard of adenine; (2D) 5 μM standard of hypoxanthine; (2E) 5 μM standard of inosine on a BEH C8 column; (2F) extracted negative ion chromatogram showing injection of a 5 μg/mL standard of ribose-1-phosphate on a BEH amide HILIC column. All measurements performed using the Q Exactive Orbitrap and extracted at m/z values of (2C) adenine [M+H]^+: 136.0617, (2D) hypoxanthine [M+H]^+: 137.0457, (2E) inosine [M+H]^+: 269.0877 and (2F) ribose-1-phosphate [M−H]^−: 229.0119 at a tolerance of 2 ppm. Middle panels: Corresponding extracted chromatograms of a representative sample (10 μg recombinant FAMIN^254I incubated with 10 μM adenosine for 1 h in 100 μl phosphate-buffered saline). Peaks at indicated retention times perfectly match those of adenine, hypoxanthine, inosine and ribose-1-phosphate standards. Lower panels: high resolution Fourier transform mass spectrometry (FTMS) mass spectrum of the representative FAMIN^254I incubated sample during the peaks putatively identified as (2C) adenine, (2D) hypoxanthine, (2E) inosine, or (2F) ribose-1-phosphate. Nominal m/z values of (2C) 136, (2D) 137, (2E) 269 and (2F) 229, respectively, were selectively targeted and fragmented using a higher-energy collision dissociation (HCD) collision voltage of 25 eV to give the fragments shown. […] Calculated from absolute levels of hypoxanthine and inosine quantified using ^13C2, ^15N1-hypoxanthine and ^15N4-inosine internal standards, and adenine levels estimated using adenine external standard. […] (SAM; S-adenosylmethionine; MTA, S-methyl-5′-thioadenosine; 2′-dA, 2′-deoxyadenosine; n=3, mean±S.E.M.). […] FIGS. 2P and 2Q show on the left FAMIN catalysed enzymatic reactions. On the right they show levels of guanine or hypoxanthine and ribose-1-phosphate in reactions containing 100 μM guanosine or inosine and recombinant FAMIN or buffer control in 100 μl after 1 h at 37° C. (n=3, mean±S.E.M.). […] On the lower panels adenine, 2′-deoxyinosine, hypoxanthine and deoxyribose-1-phosphate levels following incubation of 10 μg recombinant FAMIN or buffer control with 10 μM 2′deoxyadenosine for 1 h in 100 μl PBS (n=3 each, mean±S.E.M.). […] All metabolite level data in this figure measured as area under the chromatographic peak, normalised for total ion content. *P<0.05 (unpaired, two-tailed Student's t-test).
(§2) Putative enzymatic function of recombinant human strep-tagged FAMIN was investigated against aqueous HepG2 metabolite extracts (dried, Folch extracted from 5×10^6 cells) or nucleoside substrates at indicated concentrations and detected using HPLC-MS as described above. Unless otherwise indicated in the figure legends, HEK293T cell-expressed protein was used for all assays. The reaction mixture (final volume 100 μL) consisted of 10 μg of recombinant protein and 10 μM nucleoside substrate in Dulbecco's PBS (Thermo Fisher), pH 7.4 unless otherwise indicated. The samples were incubated at 37° C. for 1 h and then quenched with ×5 volume of ice-cold methanol. Samples were centrifuged at 21,000 g for 5 min transferred to fresh tubes and then dried down prior to analysis as described above.

recombinant human FAMIN [4] = target: T1, recombinant human FAMIN; assay: purine nucleoside phosphorylase activity of FAMIN (inosine to hypoxanthine and ribose-1-phosphate, LC-MS); assay type: biochemical; conditions: 10 μg recombinant FAMIN, 10 μM inosine in PBS, 1 h at 37° C. (FIG. 5D, 5E)
Procedure: as §1, with “The samples were incubated at 37° C. for 1 h and then quenched with ×5 volume of ice-cold methanol. Samples were centrifuged at 21,000 g for 5 min transferred to fresh tubes and then dried down prior to analysis as described above.” left out

[5] = substrate: Nc1ncnc2c1ncn2[C@@H]1O[C@H](CO)[C@@H](O)[C@H]1O; assay: adenosine deaminase activity of FAMIN (adenosine to inosine, LC-MS); assay type: biochemical, human; conditions: other: 500 nM to 100 μM adenosine, inosine production, 1 h at 37° C., pH 7.4 (FIG. 3A)
[6] = substrate: CSC[C@H]1O[C@@H](n2cnc3c(N)ncnc32)[C@H](O)[C@@H]1O; assay: S-methyl-5'-thioadenosine phosphorylase activity of FAMIN (MTA to adenine, LC-MS); assay type: biochemical, human; conditions: other: 500 nM to 100 μM MTA, adenine production, 1 h at 37° C., pH 7.4 (FIG. 3A)
Procedure: Activity measured as inosine, hypoxanthine and adenine production following incubation with protein for 1 h at 37° C. at pH 7.4.
For enzyme kinetic assays a further chromatographic approach was used to allow for analysis of all substrates and products using a single assay. A Waters BEH C8 column was used (100×2.1 mm, 1.7 μm) with a weak mobile phase (A) of aqueous 10 mM ammonium acetate with 0.1% ammonia and a strong mobile phase (B) of acetonitrile. For gradient elution mobile phase B was held at 0% for 1.6 min, followed by a linear gradient to 30% B over 4.0 minutes, a further increase to 90% over 1 min, and a hold at 90% B for 1 min, with re-equilibration for 1.5 minutes giving a total run time of 6.5 minutes. The flow rate was 0.5 mL/min and the injection volume was 2 μL. The needle wash used was 4:1 water:acetonitrile.
as §2, with “The samples were incubated at 37° C. for 1 h and then quenched with ×5 volume of ice-cold methanol. Samples were centrifuged at 21,000 g for 5 min transferred to fresh tubes and then dried down prior to analysis as described above.” left out

[7] = substrate: OC[C@H]1O[C@@H](n2cnc3c(O)ncnc32)[C@H](O)[C@@H]1O; assay: purine nucleoside phosphorylase activity of FAMIN (inosine to hypoxanthine and ribose-1-phosphate, LC-MS); assay type: biochemical, human; conditions: other: 500 nM to 100 μM inosine, hypoxanthine production, 1 h at 37° C., pH 7.4 (FIG. 3A)
Procedure: as §1, with “The samples were incubated at 37° C. for 1 h and then quenched with ×5 volume of ice-cold methanol. Samples were centrifuged at 21,000 g for 5 min transferred to fresh tubes and then dried down prior to analysis as described above.” left out

[8] = substrate: Nc1ncnc2c1ncn2[C@@H]1O[C@H](CO)[C@@H](O)[C@H]1O; assay: adenosine phosphorylase activity of FAMIN (adenosine to adenine and ribose-1-phosphate, LC-MS); assay type: biochemical, human; conditions: other: 500 nM to 100 μM adenosine, adenine production, 1 h at 37° C., pH 7.4 (FIG. 3A)
Procedure: as §1, with “The samples were incubated at 37° C. for 1 h and then quenched with ×5 volume of ice-cold methanol. Samples were centrifuged at 21,000 g for 5 min transferred to fresh tubes and then dried down prior to analysis as described above.” left out

Molecule: CCCCCC[C@@H]([C@@H](C)O)n1cnc2c(N)ncnc21 (racemic) [EHNA, erythro-9-(2-hydroxy-3-nonyl)adenine]
effect on FAMIN's adenosine phosphorylase activity (levels of adenine and R-1-P from adenosine) (recombinant human FAMIN [1]): intact | effect on adenosine deaminase activity of FAMIN (levels of inosine) (recombinant human FAMIN [2]): inhibited

Molecule: Nc1nc2c(nc(N)n2[C@@H]2O[C@H](CO)[C@@H](O)[C@H]2O)c(=O)[nH]1 [8-aminoguanosine]
effect on FAMIN's purine nucleoside phosphorylase activity (generation of hypoxanthine and R-1-P from inosine) (recombinant human FAMIN [4]): inhibited | effect on FAMIN's adenosine phosphorylase activity (levels of adenine and R-1-P from adenosine) (recombinant human FAMIN [1]): did not affect

Molecule: C[S+](CC[C@H](N)C(=O)[O-])C[C@H]1O[C@@H](n2cnc3c(N)ncnc32)[C@H](O)[C@@H]1O (some centres unmarked) [SAM, S-adenosylmethionine]
metabolised by FAMIN as pure substrate (recombinant human FAMIN [3]): not

Molecule: Nc1ccn([C@@H]2O[C@H](CO)[C@@H](O)[C@H]2O)c(=O)n1 [cytidine]
metabolised by FAMIN as pure substrate (recombinant human FAMIN [3]): No activity

Molecule: Nc1nc2c(ncn2[C@@H]2O[C@H](CO)[C@@H](O)[C@H]2O)c(=O)[nH]1 [guanosine]
metabolised by FAMIN as pure substrate (recombinant human FAMIN [3]): metabolised

Molecule: OC[C@H]1O[C@@H](n2cnc3c2NC=NC[C@H]3O)C[C@@H]1O [pentostatin]
effect on FAMIN's adenosine phosphorylase activity (levels of adenine and R-1-P from adenosine) (recombinant human FAMIN [1]): intact

B1: recombinant human FAMIN (Homo sapiens) (protein)
chain: T1 sequence (Q8IV20 1-430)
notes: twin Strep-tag (followed by short linker and TEV cleavage site) (N, cleaved yes); made in house; host or cells: HEK293T
Km [5]: 11 µM | Km [6]: 1 µM | Km [7]: 41 µM | Km [8]: 36 µM

The remaining lines, values ahead:

metabolised by FAMIN as pure substrate (recombinant human FAMIN [3]): metabolised
Molecule: Nc1ncnc2c1ncn2[C@H]1C[C@H](O)[C@@H](CO)O1 [2′-deoxy-adenosine, 2′-deoxyadenosine]

metabolised by FAMIN as pure substrate (recombinant human FAMIN [3]): substrate of FAMIN
Molecule: C[C@H]1O[C@@H](n2cnc3c(N)ncnc32)[C@H](O)[C@@H]1O [5′-deoxy-adenosine, 5′-deoxyadenosine]

metabolised by FAMIN as pure substrate (recombinant human FAMIN [3]): metabolised
Molecule: CSC[C@H]1O[C@@H](n2cnc3c(N)ncnc32)[C@H](O)[C@@H]1O [MTA, S-methyl-5′-thioadenosine]

metabolised by FAMIN as pure substrate (recombinant human FAMIN [3]): consumed
Molecule: Nc1ncnc2c1ncn2[C@@H]1O[C@H](CO)[C@@H](O)[C@H]1O [adenosine]

metabolised by FAMIN as pure substrate (recombinant human FAMIN [3]): metabolised
Molecule: OC[C@H]1O[C@@H](n2cnc3c(O)ncnc32)[C@H](O)[C@@H]1O [inosine]
